# According to ChEMBL document CHEMBL1133901, “Synthesis and potassium channel opening activity of substituted 10H-benzo[4,5]furo[3,2-b]indole-and 5,10-dihydro-indeno[1,2-b]indole-1-carboxylic acids” (Bioorg Med Chem Lett, 2001):
# Species on record: Rattus norvegicus
# Assay: Concentration that relaxed KCl-induced contractions in rat aortic rings by 50%
# Assay type: functional
# Conditions: Aorta
row,IC50 [µM],SMILES
1,17.2,CC1(C)c2ccc([N+](=O)[O-])cc2-c2[nH]c3c(C(=O)O)cccc3c21
2,118,O=C(O)c1cccc2c1[nH]c1c3cc(Br)ccc3oc21
3,109,O=C(O)c1cccc2c1Cc1c-2[nH]c2ccc(Br)cc12
4,210,O=C(O)c1cccc2c3c([nH]c12)-c1cc(Br)ccc1C3

# Species on record: Rattus norvegicus
# Assay: Concentration that relaxed KCl-induced contractions in rat detrusor strips by 50%
# Assay type: functional
# Conditions: not given
row,IC50 [µM],SMILES
1,5.8,O=C(O)c1cccc2c1[nH]c1c3cc(Cl)ccc3oc21
2,> 30,O=Cc1cccc2c1[nH]c1c3cc(Br)ccc3oc21
3,> 30,Cn1c2c(C(=O)O)cccc2c2oc3ccc(Br)cc3c21
4,6.1,O=C(O)c1cccc2c1[nH]c1c3cc(I)ccc3oc21
5,> 30,NC(=O)c1cccc2c1[nH]c1c3cc(Br)ccc3oc21
6,15.1,O=C(O)c1cccc2c1[nH]c1c3cc(Br)ccc3oc21
7,> 30,COC(=O)c1cccc2c1[nH]c1c3cc(Br)ccc3oc21

# Further lines, the compound ahead of its results:
row,SMILES,IC50 [µM]
1,O=C(O)c1cccc2c1Cc1c-2[nH]c2ccc(OC(F)(F)F)cc12,15.4
2,O=C(O)c1cccc2c1[nH]c1c3ccccc3oc21,30
3,CC1(C)c2ccc([N+](=O)[O-])cc2-c2[nH]c3c(C(=O)O)cccc3c21,5.2
4,O=C(O)c1cccc2c1Cc1c-2[nH]c2ccc(Cl)cc12,22.6
5,NS(=O)(=O)c1ccc2[nH]c3c(c2c1)Cc1c(C(=O)O)cccc1-3,> 30
6,O=C(O)c1cccc2c1Cc1c-2[nH]c2ccc(Br)cc12,4.4
7,O=C(O)c1cccc2c1Cc1c-2[nH]c2ccc(I)cc12,10.1
8,O=C(O)c1cccc2c1[nH]c1c3cc([N+](=O)[O-])ccc3oc21,6.3
